Our source for the IC50 and Efficacy values is ChEMBL document CHEMBL1138641, “2-(4-Methoxyphenoxy)-5-nitro-N-(4-sulfamoylphenyl)benzamide activates Kir6.2/SUR1 K(ATP) channels” (Bioorg Med Chem Lett, 2004).

Test [1] relates to Beta-TC6. Kind of test: Concentration required for inhibition of glucose stimulated insulin release from beta TC6 cells. It is filed as functional, cell-based, Mus musculus.
The nature of test [2]: inhibitory concentration required for repolarization of beta cell membrane potential in presence of 10 mM glucose. It is filed as functional, Homo sapiens.
Test [3] concerns Beta-TC6. Kind of test: Percent efficacy for inhibition of glucose stimulated insulin release from beta TC6 cells. It is filed as functional, Mus musculus.
Test [4] deals with HEK293. The test is described as follows: Potency by repolarisation of tolbutamide-depolarised membrane potential in HEK 293 cells. The following applies: Homo sapiens.
Where [5] appears, read: Mus musculus, Beta-TC6, read-out: IC50.

A word on the IC50: it is the midpoint of a concentration-inhibition curve. In the case of `CC(C)NC1=NS(=O)(=O)c2cc(Cl)ccc2N1`, the IC50 in test [1] (setting [5]) is 0.46 µM; in test [2] (Homo sapiens, read-out: IC50) it was 0.25 µM; in test [4], 0.8 µM. In test [3], this compound displayed an Efficacy of 75%.

For `COc1ccc(NC(=O)c2cc([N+](=O)[O-])ccc2Oc2ccc(OC)cc2)cc1`, the IC50 in test [1] (setting [5]) came out at 1.6 µM; in test [2] (Homo sapiens, read-out: IC50) it was 3.4 µM. For the same compound, the Efficacy in test [3] was 73%.

Consider `COc1ccc(Oc2ccc([N+](=O)[O-])cc2C(=O)Nc2ccccc2S(N)(=O)=O)cc1`, for which the IC50 in test [1] (setting [5]) was 10.4 µM; in test [2] it was “No significant activity”. Also, the Efficacy in test [3] came to 33%.

Consider `CCN(C(=O)c1cc([N+](=O)[O-])ccc1Oc1ccc(OC)cc1)c1ccc(Cl)cc1`, for which the IC50 in test [1] (setting [5]) was determined as 10.4 µM; in test [2] (Homo sapiens, read-out: IC50), 8.3 µM. In addition, the Efficacy in test [3] is on record as 56%.

Turning to `COc1ccc(Oc2ccc([N+](=O)[O-])cc2C(=O)Nc2ccc(C(C)=O)cc2)cc1`, the IC50 in test [1] (setting [5]) worked out at 1.12 µM; in test [2] (Homo sapiens, read-out: IC50), 8.1 µM. In test [3], this compound yielded an Efficacy of 75%.

On to `COc1ccc(Nc2ccc([N+](=O)[O-])cc2C(=O)Nc2ccc(S(N)(=O)=O)cc2)cc1`, for which the IC50 in test [1] (setting [5]) is 26.6 µM; in test [2], “No significant activity”. In test [3], this compound gave an Efficacy of 1%.

With `COc1ccc(NC(=O)c2cc(C#N)ccc2Oc2ccc(OC)cc2)cc1`, the IC50 turned out to be 48.5 µM in test [1] (setting [5]) and 2.5 µM in test [2] (Homo sapiens, read-out: IC50). Moreover, the Efficacy in test [3] came to 17%.

Consider `COc1ccc(Oc2ccc([N+](=O)[O-])cc2C(=O)Nc2ccc(F)cc2)cc1`, for which the half-maximal inhibitory concentration (IC50) in test [1] (setting [5]) was 5.67 µM; in test [2] (Homo sapiens, read-out: IC50), 7.2 µM. The compound also yielded an Efficacy in test [3] of 52%.

For the compound `COc1ccc(NC(=O)c2ccccc2Oc2ccccc2)cc1`, the IC50 result in test [1] (beta-tc6) and in test [2] was “No significant activity” throughout.

As for `COc1ccc(Oc2ccc([N+](=O)[O-])cc2C(=O)Nc2cccc(S(N)(=O)=O)c2)cc1`, the IC50 in test [1] (setting [5]) came to 20.5 µM; in test [2] (Homo sapiens, read-out: IC50), 9.9 µM. The same compound returned an Efficacy in test [3] of 31%.

With `COc1ccc(Oc2ccc([N+](=O)[O-])cc2C(=O)Nc2ccc(S(N)(=O)=O)cc2)cc1`, the IC50 in test [1] (setting [5]) stood at 0.82 µM; in test [2] (Homo sapiens, read-out: IC50), 1.8 µM; in test [4] it was 1.3 µM. Besides, the Efficacy in test [3] came out at 79%.

For the compound `COc1ccc(NC(=O)c2cc(N)ccc2Oc2ccc(OC)cc2)cc1`, the half-maximal inhibitory concentration (IC50) entry in test [1] (beta-tc6) and in test [2] was “No significant activity” each time.

In the case of `COc1ccc(Oc2ccc([N+](=O)[O-])cc2C(=O)N(C)c2ccc(Cl)cc2)cc1`, the IC50 is 25.7 µM in test [1] (setting [5]) and 10.1 µM in test [2] (Homo sapiens, read-out: IC50). The same compound came in with an Efficacy in test [3] of 33%.

Consider `CC1=Nc2ccc(Cl)cc2S(=O)(=O)N1` [DIAZOXIDE], for which the IC50 was 23 µM in test [1] (setting [5]); 13.7 µM in test [2] (Homo sapiens, read-out: IC50); 33 µM in test [4]. This compound yielded an Efficacy in test [3] of 25%.

As for `CC1(NC2=NS(=O)(=O)c3sc(Cl)cc3N2)CC1` [TIFENAZOXIDE], the IC50 in test [1] (setting [5]) worked out at 0.25 µM; in test [2] (Homo sapiens, read-out: IC50) it was 0.6 µM. The compound further yielded an Efficacy in test [3] of 73%.
